Laboratory results from EP1150982B1, “PURINE INHIBITORS OF CYCLIN DEPENDENT KINASE 2 AND IkB-alpha” (CV THERAPEUTICS, INC., priority 1999, dated 2000).
In brackets after ≈: the same amount, converted by molar mass. Where two headings read alike, the source gives them in different places. Each block holds one molecule with its values, some of them ahead of it.

What was measured:
IκB-α kinase = IκB-α kinase assay (filter assay of affinity enriched IκB-α kinase from LPS-activated HUVEC lysate); format: biochemical, human; details: Table 11, Enzyme Activity of Selected Compounds
CDK2 = CDK2 (Homo sapiens, UniProt P24941); experiment: biochemical; details: concentration required to inhibit CDK2 activity by 50%; 30 µM ATP, histone H1, 30°C for 30 min; read-out: IC50 (µg/mL) enzyme (converted)
Experimental: Compounds of this invention were assayed to determine their CDK2 inhibitory activity. The assay system (total volume of 50 µl) contained 50 mM Tris-HCl, pH 7.4, 10 mM MgCl2, 5 mM DTT, 1 µg of histone H1, 30 µM ATP (1 µCi of gamma^32P labeled ATP), 10 µg of BSA and 1 ng of purified CDK2. After incubation at 30°C for 30 min, the reaction was terminated by the addition of 10 µl of 10% TCA and the samples were blotted onto nitrocellulose filters. These filters were washed extensively in 10% TCA and assayed for radioactivity. Blanks contained no enzyme. […] After incubation at 30 min., the assay tubes were processed as above.

[1] = tested on: PupVSMC rat neonatal aortic smooth muscle cells; experiment: Cell proliferation assay, PupVSMC; format: cell-based
Experimental: (§1) Early passage rat aortic smooth muscle cells (CV Therapeutics Cell repository) were seeded in 48 well dishes (Falcon, […]) at a density of 20,000 cells/ml of DME containing 5% heat inactivated bovine serum. The cells were incubated in a standard tissue culture incubator for 48 hr. The medium was aspirated and the wells were replenished with 0.2 ml of fresh medium. Compounds of this invention were added at concentrations ranging from 100 to 0.37 µg/ml. After 48 hr incubation, the medium was aspirated and the cultures were treated with 0.2 ml of saline and 0.25 µl of phenazine methosulfate solution containing MTS (Cell Titer 96® Aqueous Non-radioactive cell proliferation assay kit, Catalog # G 5430, Promega, 2800 Woods Hollow Road, Madison, WI 53711-5399). […]
(§2) Similar assays were performed using the following cell lines: P388 - mouse lymphoid neoplasm; L1210 - mouse lymphocytic leukemia; Caco2 human colon adenocarcinoma; MCF7 human breast adenocarcinoma; PupVSMC rat neonatal aortic smooth muscle cells; Ovcar human ovarian Carcinoma; Pancl human pancreatic adenocarcinoma; and HUVEC human umbilical cord endothelial cells.

[2] = tested on: rat aortic smooth muscle cells; experiment: tissue or blood; format: cell-based; details: read-out: IC50 (µg/mL) cells
Experimental: (§3) Early passage rat aortic smooth muscle cells (CV Therapeutics Cell repository) were seeded in 48 well dishes (Falcon, […]) at a density of 20,000 cells/ml of DME containing 5% heat inactivated bovine serum. The cells were incubated in a standard tissue culture incubator for 48 hr. The medium was aspirated and the wells were replenished with 0.2 ml of fresh medium. […]

[3] = tested on: MCF7 human breast adenocarcinoma; experiment: Cell proliferation assay, MCF7; format: cell-based; details: MCF7 cells, read-out: IC50 (µg/ml) for Inhibition of Cell Proliferation MCF 7
Experimental: as §3, §2

[4] = tested on: Pancl human pancreatic adenocarcinoma; experiment: Cell proliferation assay, Pancl; format: cell-based; details: Pancl cells, read-out: IC50 (µg/ml) for Inhibition of Cell Proliferation Panel
Experimental: as §3, §2

[5] = tested on: L1210 - mouse lymphocytic leukemia; experiment: cells; format: cell-based; details: read-out: IC50 (µg/ml) for Inhibition of Cell Proliferation L 120
Experimental: as §1, §2

[6] = tested on: Caco2 human colon adenocarcinoma; experiment: cells; format: cell-based; details: Caco-2, read-out: IC50 (µg/ml) for Inhibition of Cell Proliferation Caco 2
Experimental: as §1, §2

[7] = tested on: P388 - mouse lymphoid neoplasm; experiment: Cell proliferation assay, P388; format: cell-based; details: P388 cells, read-out: IC50 (µg/ml) for Inhibition of Cell Proliferation P 388
[8] = tested on: Ovcar human ovarian Carcinoma; experiment: Cell proliferation assay, Ovcar; format: cell-based; details: Ovcar cells, read-out: IC50 (µg/ml) for Inhibition of Cell Proliferation OvC ar
Experimental: as §3, §2

[9] = tested on: neointima formation following balloon angioplasty in the rat carotid artery; experiment: Neointima formation following balloon angioplasty, rat carotid artery model; format: in vivo; details: 14 days recovery
From the text: In this example, the left common carotid arteries of adult male rats (n=10 per experimental group) were surgically injured using a Fogarty arterial embolectomy catheter. Immediately after injury, the common carotid artery was bisected with a vascular clamp, thereby establishing an untreated and treated segment. A drug delivery catheter was then inserted into the distal half of the common carotid. After drug delivery, the catheter was removed and excess drug was washed out by removing the vascular clamp and re-establishing blood flow before closing the artery. […] The harvested tissue was sectioned and the neointimal area was digitized and measured with a computer planimetry system.

[10] = tested on: mammalian cells in culture; details: literature; cited from earlier work
[11] = inhibitory activity against the cell line, Table 9, unit inferred, read-out: PupVSMC

Structure (SMILES): CSc1ccc(Nc2nc(N(CCO)CCO)nc3c2ncn3C(C)C)cc1 [Compound 6A, 2-diethanolamine-6-(4-methylmercapto) anilino-9-isopropylpurine]
IC50 (IκB-α kinase): 12.4 µM

IC50 (CDK2): 194 µM
Structure (SMILES): Cn1cnc2c(OCc3ccc(Cl)cc3)nc(Cl)nc21 [4-chlorobenzyloxy; Me; C1]

Structure (SMILES): CC(N)CNc1nc(NCc2ccc(Cl)cc2)c2ncn(C(C)C)c2n1 (centres unmarked) [{2-[(2-aminopropyl)amino]-9-(methylethyl)purin-6-yl}[(4-chlorophenyl)methyl]amine]
IC50 [1, 11]: 0.1 µg/mL (≈ 0.267 µM)

Structure (SMILES): CC(C)n1cnc2c(NCc3ccc(Cl)cc3)nc(N(CCN)CCO)nc21 [2-[(2-aminoethyl)(6-{[(4-chlorophenyl)methyl]amino}-9-(methylethyl)purin-2-yl)amino]ethan-1-ol]
IC50 [1, 11]: 0.3 µg/mL (≈ 0.743 µM)

IC50 (CDK2): > 168 µM
Structure (SMILES): COc1ccc(CNc2nc(Cl)nc3c2ncn3C(F)(F)F)cc1

Structure (SMILES): CCN(CC)c1nc(NCc2ccc(-c3ccccc3)cc2)c2ncn(C(C)C)c2n1
IC50 (IκB-α kinase): > 2.4 µM

Structure (SMILES): COc1ccc(CNc2nc(N(CCO)CCO)nc3c2ncn3C(C)C)cc1
IC50 ([2]; Rattus norvegicus, 48 h): 2.1 µg/mL (≈ 5.24 µM)

Structure (SMILES): CC(C)n1cnc2c(NCc3ccc(Cl)cc3)nc(N(CCN)CCO)nc21
IC50 ([2]; concentration required to inhibit cell proliferation by 50%, rat aortic smooth muscle cells, 48 hr incubation, MTS): 0.2 µg/mL (≈ 0.495 µM)

IC50 (CDK2): 207 µM
Structure (SMILES): COc1ccc(CNc2nc(Cl)nc3[nH]cnc23)cc1 [4-methoxybenzylamino; H; C1]

Structure (SMILES): CC(C)n1cnc2c(Nc3ccc(-c4ccccc4)cc3)nc(N(CCO)CCO)nc21 [Compound 6, 2-diethanolamino-6-(4-phenylanilino)-9-isopropylpurine]
IC50 [3]: 4 µg/mL (≈ 9.25 µM)
IC50 [4]: 4 µg/mL (≈ 9.25 µM)
IC50 [5]: 4 µg/mL (≈ 9.25 µM)
IC50 [6]: 0.5 µg/mL (≈ 1.16 µM)
IC50 [7]: 1 µg/mL (≈ 2.31 µM)
IC50 ([1]; VSMC, PupVSMC cells, Table 8, read-out: IC50 (µg/ml) for Inhibition of Cell Proliferation Pup VS MC): 1 µg/mL (≈ 2.31 µM)
IC50 [8]: 7 µg/mL (≈ 16.2 µM)

Structure (SMILES): CC(C)n1cnc2c(NCc3ccc(-c4ccccn4)cc3)nc(N(CCO)CCO)nc21
IC50 (IκB-α kinase): 4.5 µM

Structure (SMILES): CC(C)n1cnc2c(Nc3cccc(-c4ccc(C#N)cc4)c3)nc(N(CCO)CCO)nc21
IC50 (IκB-α kinase): 2.2 µM

IC50 (CDK2): 22.2 µM
Structure (SMILES): CC(C)n1cnc2c(NCc3ccc(S(N)(=O)=O)cc3)nc(NCCN)nc21

Structure (SMILES): CC(C)n1cnc2c(NCc3ccc(Cl)cc3)nc(NCCN)nc21 [{2-[(2-aminoethyl)amino]-9-(methylethyl)purin-6-yl}[(4-chlorophenyl)methyl]amine]
reducing the neointimal area ([9]; acute local delivery, dose of 5 mg/mL, saline alone 6%): about 90%
IC50 [1, 11]: 0.1 µg/mL (≈ 0.278 µM)

IC50 (CDK2): 1.28 µM
Structure (SMILES): CC(C)n1cnc2c(NCc3ccc(C(F)(F)F)cc3)nc(N(CCO)CCO)nc21

IC50 [4]: 5.5 µg/mL (≈ 14.4 µM)
IC50 [7]: > 5 µg/mL
IC50 [8]: 4 µg/mL (≈ 10.5 µM)
Structure (SMILES): COc1ccc(CNc2nc(N3CCOCC3)nc3c2ncn3C(C)C)cc1

IC50 (CDK2): 5 µM
Structure (SMILES): CC(C)n1cnc2c(NCc3ccc(Cl)cc3)nc(NCCNCCO)nc21

Structure (SMILES): CC(C)n1cnc2c(NCc3ccc(Cl)cc3)nc(N(CCO)CCO)nc21 [2-[(2-hydroxyethyl)(6-{[(4-chlorophenyl)methyl]amino}-9-(methylethyl)purin-2-yl)amino]ethan-1-ol]
IC50 [1, 11]: 0.3 µg/mL (≈ 0.741 µM)

IC50 (CDK2): 173 µM
Structure (SMILES): COc1ccc(CNc2nc(Cl)nc3c2ncn3CC(C)C)cc1 [4-methoxybenzylamino; 2-methylpropyl; C1]

IC50 (CDK2): 203 µM
Structure (SMILES): Clc1ccc(COc2nc(Cl)nc3[nH]cnc23)cc1 [4-chlorobenzyloxy; H; C1]

Structure (SMILES): COc1cccc(-c2ccc(CNc3nc(N(CCO)CCO)nc4c3ncn4C(C)C)cc2)c1
IC50 (IκB-α kinase): > 10 µM

Structure (SMILES): CC(C)n1cnc2c(NCc3ccc(-c4ccccc4)cc3)nc(NCCO)nc21
IC50 (IκB-α kinase): 2.5 µM

Structure (SMILES): COc1ccc(CNc2nc(N(CCO)CCO)nc3c2ncn3C(C)C)cc1 [Compound 3, 2-diethanolamino-6-(4-methoxybenzylamino)-9-isopropylarine]
reduced the neointimal area ([9]; Figure 1, acute local delivery, saline vehicle alone 6%): about 88%
IC50 [1, 11]: 0.4 µg/mL (≈ 0.999 µM)

Structure (SMILES): Cn1cnc2c(NCc3ccccc3)nc(NCCO)nc21 [olomoucine, 2-(hydroxyethylamino)-6-benzylamino-9-methylpurine]
inhibits cell proliferation at an approximate concentration [10]: ~50 µg/mL

Structure (SMILES): COc1ccc(-c2ccc(CNc3nc(N(CCO)CCO)nc4c3ncn4C(C)C)cc2)cc1
IC50 (IκB-α kinase): 11 µM

Structure (SMILES): CC(C)n1cnc2c(Nc3ccc(Br)cc3)nc(N(CCO)CCO)nc21
IC50 (IκB-α kinase): 14 µM

IC50 (CDK2): 130 µM
Structure (SMILES): CC(C)Cn1cnc2c(NCc3ccc(C(F)(F)F)cc3)nc(N(CCO)CCO)nc21

IC50 (CDK2): > 137 µM
Structure (SMILES): COC(=O)c1ccc(Cn2cnc3c(NCc4ccc(OC)cc4)nc(Cl)nc32)cc1

Structure (SMILES): CC(C)n1cnc2c(NCc3ccc(-c4ccccc4)cc3)nc(N(CCO)CCO)nc21 [2-diethanolamino-6-(4-phenylbenzylamino)-9-isopropyl purine]
IC50 (IκB-α kinase): 1.1 µM
IC50 [4]: 1.3 µg/mL (≈ 2.91 µM)
IC50 [7]: < 1 µg/mL
